Assays:
[1] = target: T1, Reduced folate transporter (Homo sapiens, UniProt P41440); assay: Inhibition of RFC-mediated [3H]MTX influx into human CCRF-CEM cells; assay type: cell-based
T1 sequence (P41440 whole entry): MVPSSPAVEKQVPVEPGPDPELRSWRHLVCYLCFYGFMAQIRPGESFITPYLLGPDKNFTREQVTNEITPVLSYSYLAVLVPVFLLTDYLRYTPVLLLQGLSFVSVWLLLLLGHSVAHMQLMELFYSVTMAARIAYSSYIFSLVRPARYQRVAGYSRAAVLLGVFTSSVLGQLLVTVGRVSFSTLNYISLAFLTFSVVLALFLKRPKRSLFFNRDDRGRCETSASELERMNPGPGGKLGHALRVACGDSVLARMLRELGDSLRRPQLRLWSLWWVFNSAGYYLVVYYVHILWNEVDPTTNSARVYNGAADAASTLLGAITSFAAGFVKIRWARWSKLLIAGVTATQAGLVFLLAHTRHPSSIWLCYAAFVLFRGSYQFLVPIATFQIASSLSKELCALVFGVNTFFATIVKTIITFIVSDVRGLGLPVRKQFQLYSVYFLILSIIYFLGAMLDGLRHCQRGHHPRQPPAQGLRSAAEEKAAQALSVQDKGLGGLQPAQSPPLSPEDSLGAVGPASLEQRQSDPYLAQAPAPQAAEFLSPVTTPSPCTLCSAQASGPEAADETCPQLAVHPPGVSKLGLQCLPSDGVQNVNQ

Dihydrofolate reductase = target: T2, Dihydrofolate reductase (Homo sapiens, UniProt P00374); assay: Inhibition of human DHFR
T2 sequence (P00374 whole entry): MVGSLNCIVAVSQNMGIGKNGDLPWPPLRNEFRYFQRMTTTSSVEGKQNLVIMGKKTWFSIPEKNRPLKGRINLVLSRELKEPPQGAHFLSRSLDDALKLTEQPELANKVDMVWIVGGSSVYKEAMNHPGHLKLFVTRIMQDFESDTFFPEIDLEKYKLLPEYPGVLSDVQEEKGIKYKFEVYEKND

CCRF-CEM = assay: Growth inhibition of human CCRF-CEM cells after 72 hrs; assay type: functional, cell-based

Row | Ki [1] | Ki (Dihydrofolate reductase) | IC50 (CCRF-CEM) | Structure (SMILES)
1 | 280 nM | 0.034 nM | 5.1 nM | Nc1nc(N)c2nc(CNc3ccc4c(c3)CN([C@@H](CCC(=O)O)C(=O)O)C4=O)cnc2n1
2 | 530 nM | 0.077 nM | 8.4 nM | Nc1nc(N)c2nc(CNc3ccc4c(c3)CN(C(CCC(=O)O)C(=O)O)C4=O)cnc2n1 (racemic)
3 | 1100 nM | 2.1 nM | 140 nM | CN(Cc1cnc2nc(N)nc(N)c2n1)c1ccc2c(c1)CN([C@@H](CCC(=O)O)C(=O)O)C2=O

From ChEMBL document CHEMBL1149317, “Synthesis and in vitro antifolate activity of rotationally restricted aminopterin and methotrexate analogues” (J Med Chem, 2004)
